Results published in the NIST ThermoML archive (doi:10.1021/acs.jced.5b00805).
Numbers after ± are expanded uncertainties.

Assays:
[1] = refractive index (Na D-line) (dimensionless); wn = mass fraction of the nth substance listed; conditions: 100 kPa, Liquid, Standard Abbe refractometry
[2] = wn = mass fraction of the nth substance listed; conditions: 100 kPa, Liquid, Vibrating tube method

Compound	refractive index ([1]; 288.15 K, w1 = 0.4413)	refractive index ([1]; 308.15 K, w1 = 0.4664)	mass density ([2]; 288.15 K, w1 = 0.4413) [kg/m3]	mass density ([2]; 308.15 K, w1 = 0.4664) [kg/m3]	refractive index ([1]; 288.15 K, w1 = 0.2601)	refractive index ([1]; 308.15 K, w1 = 0.2537)	mass density ([2]; 288.15 K, w1 = 0.2601) [kg/m3]	mass density ([2]; 308.15 K, w1 = 0.2537) [kg/m3]
[Cl-].[Li+] [lithium chloride] + O	1.4394 ± 0.0004	1.4365 ± 0.0004	1287.19 ± 1.1	1301.11 ± 1.1	–	–	–	–
O=S(=O)([O-])[O-].[Li+].[Li+] [lithium sulfate] + O	–	–	–	–	1.3845 ± 0.0004	1.3738 ± 0.0004	1236.43 ± 1	1226.22 ± 1
